The data set can be described thus: Surface charge of lipids used to make liposomes. The class given is physicochemical. The settings on record: lipid used to make liposomes.

Regarding “Phosphatidylcholine [Phosphatidylcholine (PC)]”, the Relative charge result is “No”.

For the origin of these results see patent US20130028959A1, “Liposomes for Preventing the Spread of HIV” (Massachusetts Institute of Technology, priority 2009, published 2013).
